Tests used:
[1] = system: rat model of neuropathic pain; assay: Anti-hyperalgesic effects in a model of neuropathic pain in the rat (partial sciatic nerve ligation, paw pressure); format: in vivo; details: single dose 0.3-30 mg/kg p.o. after establishment of hyperalgesia
Experimental: Test: Anti-Hyperalgesic Effects in a Model of Neuropathic Pain in the Rat
The agents of invention are potent and efficacious anti-hyperalgesic agents following oral administration in the following rat model of neuropathic pain. Peripheral neuropathy is induced by partial ligation of the left sciatic nerve. Mechanical hyperalgesia is assessed from paw withdrawal thresholds measured on the ipsilateral (ligated) and contralateral (non-ligated) hindpaws using standard paw pressure methods. Drug effects are studied 11-15 days post ligation. The mean paw withdrawal threshold±s.e.m. for the left (ligated) paw is compared to that of the right (non-ligated) paw.
The agents of invention are administered, e.g. orally in 20% cremophor/water in a volume of 1 ml. The post-drug percentage hyperalgesia values are obtained by comparison to the pre-drug value for the right (non-ligated) paw; this enables a true measure of the reduction in hyperalgesia to be obtained without the added complication of any drug effects on the right paw. […] The agents of invention produce a reversal of mechanical hyperalgesia at 0.1-100 mg/kg and show a rapid onset of activity with a long duration of action.

[2] = biological target: T1, human vanilloid receptor 1 (hVR1) ion channels (Homo sapiens, UniProt Q8NER1); assay: Fluorescence assay (calcium-sensitive dye) in CHO cells expressing human vanilloid receptor 1 ion channels, stimulated by capsaicin or low pH; format: cell-based; details: in vitro, VR1 ion channel block
T1 construct: expressed in transfected cells; host or cells: CHO cells
Experimental: Fluorescence assay: Cultures of Chinese Hamster Ovary (CHO) cells expressing human vanilloid receptor 1 ion channels are prepared according to standard protocols [McIntyre et al., British Journal of Pharmacology 132: 1084-1094 (2001)]. The activity of test compounds are investigated using a fluorescence assay utilising calcium sensitive dyes to measure changes in [Ca^2+]i. The cells are plated at a density of 25,000 per well on 96 well Costar black, clear bottomed plates cultured at 37° C. in 5% CO2 in MEM medium overnight. On the day of the assay, cells are incubated in either 2 μM fura-2/AM or 2 μM fura-6F (Molecular Probes) made up in assay buffer [Hank's Balanced Salt Solution (HBSS, Invitrogen) containing 10 mM N-2-(hydroxyethylpiperazine-N′-[2-ethanesulfonic acid) (HEPES), pH 7.4] containing 0.01% pluronic F-127 for 30 min at room temperature. […] The fluorescence is measured over 1 min at 4 s intervals using excitation wavelengths of 340 and 380 nm and emission of 520 nm. […] The ratio of fluorescence intensities following excitation at 340 and 380 nm is calculated for each time point. The agonist-evoked response is calculated as the mean of the ratios in the four time-points following stimulation minus the basal ratio.

[3] = biological target: rat VR1 (Rattus norvegicus, UniProt O35433); assay: Fluorescence assay, rat VR1; format: cell-based; details: in vitro, VR1 ion channel block
rat VR1, sequence (O35433 whole entry): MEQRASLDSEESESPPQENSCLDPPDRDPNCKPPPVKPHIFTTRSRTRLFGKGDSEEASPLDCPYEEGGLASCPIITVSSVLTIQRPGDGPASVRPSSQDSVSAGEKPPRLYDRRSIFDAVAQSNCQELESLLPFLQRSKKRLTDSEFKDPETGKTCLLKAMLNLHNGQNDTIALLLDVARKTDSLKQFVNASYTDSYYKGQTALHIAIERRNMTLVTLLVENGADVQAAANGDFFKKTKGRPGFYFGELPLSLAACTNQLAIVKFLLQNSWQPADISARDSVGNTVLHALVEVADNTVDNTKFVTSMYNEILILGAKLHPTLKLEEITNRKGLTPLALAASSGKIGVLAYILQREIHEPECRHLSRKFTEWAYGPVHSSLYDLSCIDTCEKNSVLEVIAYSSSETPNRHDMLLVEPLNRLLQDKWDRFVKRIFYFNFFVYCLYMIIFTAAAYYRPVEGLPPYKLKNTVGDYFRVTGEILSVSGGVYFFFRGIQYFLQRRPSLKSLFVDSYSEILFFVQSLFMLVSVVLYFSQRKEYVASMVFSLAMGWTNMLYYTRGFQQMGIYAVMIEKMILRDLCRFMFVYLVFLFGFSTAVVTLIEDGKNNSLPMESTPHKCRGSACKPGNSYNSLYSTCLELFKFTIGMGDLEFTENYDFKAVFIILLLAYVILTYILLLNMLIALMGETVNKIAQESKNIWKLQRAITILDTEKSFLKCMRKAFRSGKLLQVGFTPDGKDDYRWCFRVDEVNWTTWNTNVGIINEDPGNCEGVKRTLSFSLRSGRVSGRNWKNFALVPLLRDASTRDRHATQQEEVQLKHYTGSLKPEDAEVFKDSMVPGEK

T1 sequence (Q8NER1 whole entry): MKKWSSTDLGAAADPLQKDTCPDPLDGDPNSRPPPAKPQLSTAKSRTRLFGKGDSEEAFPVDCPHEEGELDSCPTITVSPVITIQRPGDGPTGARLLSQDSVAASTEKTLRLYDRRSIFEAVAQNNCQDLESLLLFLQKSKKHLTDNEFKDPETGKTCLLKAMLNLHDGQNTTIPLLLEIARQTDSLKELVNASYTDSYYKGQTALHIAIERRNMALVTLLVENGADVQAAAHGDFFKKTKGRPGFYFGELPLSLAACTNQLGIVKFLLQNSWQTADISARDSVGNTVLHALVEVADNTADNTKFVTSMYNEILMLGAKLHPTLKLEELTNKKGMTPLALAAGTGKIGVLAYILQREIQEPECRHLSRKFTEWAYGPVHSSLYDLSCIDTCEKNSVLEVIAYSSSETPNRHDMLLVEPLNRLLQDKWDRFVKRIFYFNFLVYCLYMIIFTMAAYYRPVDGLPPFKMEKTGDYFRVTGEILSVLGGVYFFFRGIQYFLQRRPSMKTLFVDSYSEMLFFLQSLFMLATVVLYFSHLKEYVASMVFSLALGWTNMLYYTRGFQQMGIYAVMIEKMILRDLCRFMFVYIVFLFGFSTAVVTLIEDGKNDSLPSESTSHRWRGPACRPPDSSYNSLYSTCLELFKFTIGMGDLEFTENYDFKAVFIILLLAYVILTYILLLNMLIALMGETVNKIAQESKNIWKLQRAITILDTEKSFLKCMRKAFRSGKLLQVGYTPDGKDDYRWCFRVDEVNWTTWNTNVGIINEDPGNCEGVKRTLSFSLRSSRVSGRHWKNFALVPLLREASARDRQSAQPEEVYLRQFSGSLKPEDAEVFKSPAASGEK

- IC50 [2]: 65.1 nM
- IC50 [3]: 19.2 nM
SMILES: CC(C)(C)c1nc2[nH]c(=S)[nH]c(=O)c2cc1-c1ccc(Cl)cc1 [Example 2, 7-.tert.-butyl-6-(4-chlorophenyl)-2-thioxo-2,3-dihydro-1.H.-pyrido[2,3-.d.]pyrimidin-4-one]
- duration of effect on paw withdrawal thresholds [1]: at least 6 h
- effect on paw withdrawal thresholds [1]: dose-dependently reduces paw withdrawal thresholds

Source: patent US7915264B2, “Fused pyridine derivatives for use as vanilloid receptor antagonists for treating pain” (Novartis AG, priority 2001, dated 2011)
